Measured values: ChEMBL document CHEMBL5137008, “Recent advances of antitumor shikonin/alkannin derivatives: A comprehensive overview focusing on structural classification, synthetic approaches, and mechanisms of action” (Eur J Med Chem, 2022)
pIC50: −log10 of the molar value.

Key:
Ca9-22 [1] = assay: Cytotoxicity against human Ca9-22 cells assessed as reduction in cell viability incubated for 24 hrs by MTT assay; format: functional, cell-based; settings: Ca9-22, 24 h
Ca9-22 [2] = assay: Cytotoxicity against human Ca9-22 cells assessed as reduction in cell viability incubated for 48 hrs by MTT assay; format: functional, cell-based; settings: Ca9-22, 48 h
B16-F10 [3] = assay: Anticancer activity against mouse B16-F10 cells assessed as inhibition of cell proliferation incubated for 48 hrs by MTT assay; format: functional, cell-based; settings: B16-F10, 48 h
MG-63 = assay: Anticancer activity against human MG-63 cells assessed as inhibition of cell proliferation incubated for 48 hrs by MTT assay; format: functional, cell-based; settings: MG-63, 48 h
A549 [4] = assay: Anticancer activity against human A549 cells assessed as inhibition of cell proliferation incubated for 48 hrs by MTT assay; format: functional, cell-based; settings: A549, 48 h
[5] = Inhibition of bovine brain tubulin polymerization preincubated with compound followed by GTP addition and measured after 20 mins by turbidimetry-based spectrophotometric method; design: species or system Bos taurus
SW872 = assay: Anticancer activity against human SW872 cells assessed as inhibition of cell growth incubated for 72 hrs by MTT assay; format: functional, cell-based; settings: SW872, 72 h
A549 [6] = assay: Anticancer activity against human A549 cells assessed as inhibition of cell growth incubated for 72 hrs by MTT assay; format: functional, cell-based; settings: A549, 72 h
A549 [7] = assay: Antiproliferative activity against human A549 cells assessed as reduction in cell viability incubated for 24 hrs by MTT assay; format: functional, cell-based; settings: A549, 24 h
HepG2 [8] = assay: Antiproliferative activity against human HepG2 cells assessed as reduction in cell viability incubated for 24 hrs by MTT assay; format: functional, cell-based; settings: HepG2, 24 h
[9] = Cytotoxicity against human L02 cells assessed as inhibition of cell growth incubated for 24 hrs by MTT assay; format: toxicity, cell-based
[10] = Antitubulin activity against bovine brain tubulin polymerization preincubated with compound followed by GTP addition and measured after 20 mins by turbidimetry-based spectrophotometric method; design: species or system Bos taurus
HeLa [11] = assay: Antiproliferative activity against human HeLa cells assessed as inhibition of cell proliferation incubated for 20 hrs by MTT assay; format: functional, cell-based
HepG2 [12] = assay: Antiproliferative activity against human HepG2 cells assessed as inhibition of cell proliferation incubated for 20 hrs by MTT assay; format: functional, cell-based; settings: HepG2, 20 h
[13] = Antiproliferative activity against human BGC cells assessed as inhibition of cell proliferation incubated for 20 hrs by MTT assay; format: functional, cell-based
HepG2 [14] = assay: Antiproliferative activity against human HepG2 cells assessed as inhibition of cell proliferation incubated for 24 hrs by MTT assay; format: functional, cell-based; settings: HepG2, 24 h
A549 [15] = assay: Antiproliferative activity against human A549 cells assessed as inhibition of cell proliferation incubated for 24 hrs by MTT assay; format: functional, cell-based; settings: A549, 24 h
MCF7 [16] = assay: Antiproliferative activity against human MCF7 cells assessed as inhibition of cell proliferation incubated for 24 hrs by MTT assay; format: functional, cell-based; settings: MCF7, 24 h
SCC-4 = assay: Antiproliferative activity against human SCC-4 cells assessed as inhibition of cell proliferation incubated for 24 hrs by MTT assay; format: functional, cell-based; settings: SCC-4, 24 h
[17] = Cytotoxicity against African green monkey VERO cells assessed as inhibition of cell growth incubated for 24 hrs by MTT assay; format: toxicity, cell-based, Chlorocebus sabaeus
MCF7 [18] = assay: Antiproliferative activity against human MCF7 cells assessed as inhibition of cell growth incubated for 24 hrs in presence of foetal bovine serum by MTT assay; format: functional, cell-based; settings: MCF7, 24 h
MDA-MB-468 = assay: Antiproliferative activity against human MDA-MB-468 cells assessed as inhibition of cell growth incubated for 24 hrs in presence of foetal bovine serum by MTT assay; format: functional, cell-based; settings: MDA-MB-468, 24 h
[19] = Cytotoxicity against human MCF-10A assessed as inhibition of cell growth incubated for 24 hrs in presence of foetal bovine serum by MTT assay; format: toxicity, cell-based; settings: MCF-10A cells
[20] = Cytotoxicity against human L02 cells assessed as inhibition of cell growth incubated for 24 hrs in presence of foetal bovine serum by MTT assay; format: toxicity, cell-based
[21] = Cytotoxicity against human HEK293T cells assessed as inhibition of cell growth incubated for 24 hrs in presence of foetal bovine serum by MTT assay; format: toxicity, cell-based, HEK-293T
BT-474 = assay: Antiproliferative activity against human BT-474 cells assessed as inhibition of cell growth incubated for 24 hrs in presence of foetal bovine serum by MTT assay; format: functional, cell-based; settings: BT-474, 24 h
MDA-MB-436 = assay: Antiproliferative activity against human MDA-MB-436 cells assessed as inhibition of cell growth incubated for 24 hrs in presence of foetal bovine serum by MTT assay; format: functional, cell-based; settings: MDA-MB-436, 24 h
MDA-MB-231 [22] = assay: Antiproliferative activity against human MDA-MB-231 cells assessed as inhibition of cell growth incubated for 24 hrs by MTT assay; format: functional, cell-based; settings: MDA-MB-231, 24 h
MCF7 [23] = assay: Antiproliferative activity against human MCF7 cells assessed as inhibition of cell growth incubated for 24 hrs by MTT assay; format: functional, cell-based; settings: MCF7, 24 h
MDA-MB-231 [24] = assay: Antiproliferative activity against human MDA-MB-231 cells assessed as inhibition of cell proliferation incubated for 24 hrs by CCK-8 assay; format: functional, cell-based; settings: MDA-MB-231, 24 h
MCF7 [25] = assay: Antiproliferative activity against human MCF7 cells assessed as inhibition of cell proliferation incubated for 24 hrs by CCK-8 assay; format: functional, cell-based; settings: MCF7, 24 h
A549 [26] = assay: Antiproliferative activity against human A549 cells assessed as inhibition of cell proliferation incubated for 24 hrs by CCK-8 assay; format: functional, cell-based; settings: A549, 24 h
HeLa [27] = assay: Antiproliferative activity against human HeLa cells assessed as inhibition of cell proliferation incubated for 24 hrs by CCK-8 assay; format: functional, cell-based
[28] = Cytotoxicity against human MCF-10A cells assessed as inhibition of cell proliferation incubated for 24 hrs by CCK-8 assay; format: toxicity, cell-based
B16-F10 [29] = assay: Antiproliferative activity against mouse B16-F10 cells incubated for 24 hrs by MTT assay; format: functional, cell-based; settings: B16-F10, 24 h
HepG2 [30] = assay: Antiproliferative activity against human HepG2 cells incubated for 24 hrs by MTT assay; format: functional, cell-based; settings: HepG2, 24 h
MDA-MB-231 [31] = assay: Antiproliferative activity against human MDA-MB-231 cells incubated for 24 hrs by MTT assay; format: functional, cell-based; settings: MDA-MB-231, 24 h
[32] = Cytotoxicity against human L02 incubated for 24 hrs by MTT assay; format: toxicity, cell-based; settings: L02 cells
[33] = Cytotoxicity against African green monkey Vero cells incubated for 24 hrs by MTT assay; format: toxicity, cell-based, Chlorocebus sabaeus
[34] = Cytotoxicity against human MCF-10A incubated for 24 hrs by MTT assay; format: toxicity, cell-based; settings: MCF-10A cells
[35] = Cytotoxicity against human skin fibroblast cells assessed as reduction in cell viability incubated for 72 hrs by MTT assay; format: toxicity, cell-based
HCT-15 = assay: Anticancer activity against human HCT-15 cells incubated for 72 hrs by MTT assay; format: functional, cell-based; settings: HCT-15, 72 h
MGC-803 = assay: Anticancer activity against human MGC-803 cells incubated for 72 hrs by MTT assay; format: functional, cell-based; settings: MGC-803, 72 h
Fibroblast = assay: Cytotoxicity against human skin fibroblast cells incubated for 72 hrs by MTT assay; format: functional, cell-based
SK-BR-3 = assay: Antiproliferative activity against human SK-BR-3 cells assessed as inhibition of cell growth incubated for 24 hrs in presence of foetal bovine serum by MTT assay; format: functional, cell-based; settings: SK-BR-3, 24 h
HeLa [36] = assay: cells; settings: Homo sapiens, 24 h

## CC(C)=CC[C@@H](O)C1=CC(=O)c2c(O)ccc(O)c2C1=O [SHIKONIN]
Ca9-22 [1]
  pIC50: 4.87
Ca9-22 [2]
  pIC50: 4.89
B16-F10 [3]
  pIC50: 5.43
MG-63
  pIC50: 5.25
A549 [4]
  pIC50: 5.30
[5]
  pIC50: 4.52
SW872
  pIC50: 6.12
A549 [6]
  pIC50: 5.74
A549 [7]
  pIC50: 5.77
HepG2 [8]
  pIC50: 5.89
[9]
  IC50 at 24 h: 3.26 µM
[10]
  pIC50: 4.82
HeLa [11]
  pIC50: 5.51
HepG2 [12]
  pIC50: 6.04
[13]
  pIC50: 5.66
HepG2 [14]
  pIC50: 5.03
A549 [15]
  pIC50: 5.50
MCF7 [16]
  pIC50: 5.30
SCC-4
  pIC50: 5.00
[17]
  IC50 at 24 h: 6.76 µM
MCF7 [18]
  pIC50: 5.34
MDA-MB-468
  pIC50: 5.48
[19]
  IC50 at 24 h: 23.5 µM
[20]
  IC50 at 24 h: 10.5 µM
[21]
  IC50 at 24 h: 9.27 µM
BT-474
  pIC50: 5.24
MDA-MB-436
  pIC50: 5.44
MDA-MB-231 [22]
  pIC50: 5.05
MCF7 [23]
  pIC50: 5.11
MDA-MB-231 [24]
  pIC50: 5.12
MCF7 [25]
  pIC50: 5.03
A549 [26]
  pIC50: 5.11
HeLa [27]
  pIC50: 4.96
[28]
  IC50 at 24 h: 20.9 µM
B16-F10 [29]
  pIC50: 4.75
HepG2 [30]
  pIC50: 5.56
MDA-MB-231 [31]
  pIC50: 3.97
[32]
  IC50 at 24 h: 83.8 µM
[33]
  IC50 at 24 h: 6.76 µM
[34]
  IC50 at 24 h: 93.4 µM
[35]
  IC50 at 72 h: 1.2 µM
HCT-15
  pIC50: 6.03
MGC-803
  pIC50: 5.89
Fibroblast
  pIC50: 5.91
SK-BR-3
  pIC50: 5.43
HeLa [36]
  pIC50: 5.32
